The results in this text go back to patent publication US20240000075A1, “FUNGICIDAL ARYL AMIDINES” (CORTEVA AGRISCIENCE LLC, priority 2020, published 2024).

Like-named read-outs stand apart in the source and are kept apart here.

One assay relates to Zymoseptoria tritici. Briefly: Septoria leaf blotch of wheat, whole-plant fungicidal activity (SEPTTR). Format: in vivo, Zymoseptoria tritici on wheat plants (variety 'Yuma'). The settings on record: read-out: % Disease Control Rating SEPTTR. As for the experimental part:
Example A: Evaluation of Fungicidal Activity: Septoria Leaf Blotch of Wheat (Zymoseptoria tritici; Bayer Code […]) Technical grades of materials were dissolved in acetone, which were then mixed with nine volumes of water (H2O) containing 110 ppm Triton X-100. The fungicide solutions were applied onto wheat seedlings using an automated booth sprayer to run-off. All sprayed plants were allowed to air dry prior to further handling. All fungicides were evaluated using the aforementioned method for their activity vs. all target diseases, unless stated otherwise. Wheat plants (variety 'Yuma') were grown from seed in a greenhouse in soil-less potting mix until the first leaf was fully emerged, with 7-10 seedlings per pot. These plants were inoculated with an aqueous spore suspension of Zymoseptoria tritici either 3 days prior to fungicide treatment (3 day curative; 3DC) or 1 day after fungicide treatment (1 day protectant; 1DP). After inoculation the plants were kept in 100% relative humidity for three days to permit spores to germinate and infect the leaf. The plants were then transferred to a greenhouse for disease to develop. When disease symptoms were fully expressed on the 1st leaves of untreated plants, infection levels were assessed on a scale of 0 to 100 percent disease severity. Percent disease control was calculated using the ratio of disease severity on treated plants relative to untreated plants.

Another assay has as its system Puccinia triticina. Description: Wheat brown rust, whole-plant fungicidal activity (PUCCRT). Format: in vivo, Puccinia triticina on wheat plants (variety 'Yuma'). The settings on record: 24 h, 1DP (1 day protectant), read-out: % Disease Control Rating PUCCRT. As for the experimental part:
Technical grades of materials were dissolved in acetone, which were then mixed with nine volumes of water (H2O) containing 110 ppm Triton X-100. The fungicide solutions were applied onto wheat seedlings using an automated booth sprayer to run-off. All sprayed plants were allowed to air dry prior to further handling. All fungicides were evaluated using the aforementioned method for their activity vs. all target diseases, unless stated otherwise.
Example B: Evaluation of Fungicidal Activity: Wheat Brown Rust (Puccinia triticina; Synonym: Puccinia recondita f sp. tritici; Bayer Code PUCCRT)
Wheat plants (variety ‘Yuma’) were grown from seed in a greenhouse in soil-less potting mix until the first leaf was fully emerged, with 7-10 seedlings per pot. These plants were inoculated with an aqueous spore suspension of Puccinia triticina after fungicide treatments. After inoculation, the plants were kept in a dark dew room with 100% relative humidity overnight to permit spores to germinate and infect the leaf. The plants were then transferred to a greenhouse for disease to develop. Fungicide formulation, application and disease assessment followed the procedures as described in Example A.

The subject of a further assay is Phakopsora pachyrhizi. Briefly: Asian soybean rust, whole-plant fungicidal activity (PHAKPA). Format: in vivo. The settings on record: read-out: % Disease Control Rating PHAKPA. As for the experimental part:
Example C: Evaluation of Fungicidal Activity: Asian Soybean Rust (Phakopsora pachyrhizi; Bayer Code […]) Technical grades of materials were dissolved in acetone, which were then mixed with nine volumes of H2O containing 0.011% Tween-20. The fungicide solutions were applied onto soybean seedlings using an automated booth sprayer to run-off. All sprayed plants were allowed to air dry prior to further handling. Soybean plants (variety 'Williams 82') were grown in soil-less potting mix, with one plant per pot. Ten-day-old seedlings were used for testing. Plants were inoculated as described in Example A. Plants were incubated for 24 h in a dark dew room with 100% relative humidity then transferred to a growth room for disease to develop. Fungicide formulation and application were made as described in Example A. When disease symptoms were fully expressed, disease severity was assessed on the sprayed leaves on a scale of 0 to 100 percent. Percent disease control was calculated using the ratio of disease severity on treated plants relative to untreated plants.

For the next assay, the system named is Rhynchosporium commune. Description: Leaf blotch of barley, whole-plant fungicidal activity (RHYNSE). Format: in vivo. To be noted: 24 h, 1DP (1 day protectant), read-out: % Disease Control Rating RHYNSE. As for the experimental part:
Technical grades of materials were dissolved in acetone, which were then mixed with nine volumes of water (H2O) containing 110 ppm Triton X-100. The fungicide solutions were applied onto wheat seedlings using an automated booth sprayer to run-off. All sprayed plants were allowed to air dry prior to further handling. All fungicides were evaluated using the aforementioned method for their activity vs. all target diseases, unless stated otherwise. Example D: Evaluation of Fungicidal Activity: Leaf Blotch of Barley (Rhynchosporium commune; Bayer Code […]) Barley plants (variety 'Harrington') were grown from seed in a greenhouse in soil-less potting mix until the first leaf was fully emerged, with 7-10 seedlings per pot. These plants were inoculated with an aqueous spore suspension of Rhynchosporium commune after fungicide treatments. After inoculation, the plants were kept in a dark dew room with 100% relative humidity for two days to permit spores to germinate and infect the leaf. The plants were then transferred to a greenhouse for disease to develop. Fungicide formulation and application were made as described in Example A. Disease assessment was conducted as described in Example A.

Consider `Cc1cc(C(=O)Cc2c(F)cc(F)cc2F)c(C)cc1/N=C/N1CCCCC1` [Compound 81], for which the pest or weed control at 200 ppm in the assay on Zymoseptoria tritici (24 h, 1DP (1 day protectant)) is < 20%; with Zymoseptoria tritici (72 h, 3DC (3 day curative)) it was < 20%; in the assay on Puccinia triticina it was > 85%; with Phakopsora pachyrhizi (24 h, 1DP (1 day protectant)), 50 to 85%; in the assay with Rhynchosporium commune, < 20%.
In the case of `Cc1cc(C(=O)CC2CCCCC2)c(C)cc1/N=C(\S)N1CCCCC1` [Compound 50], the pest or weed control at 200 ppm is > 85% in the assay on Zymoseptoria tritici (24 h, 1DP (1 day protectant)); 20 to 50% in the assay on Zymoseptoria tritici (72 h, 3DC (3 day curative)); > 85% in the assay with Puccinia triticina; > 85% with Phakopsora pachyrhizi (24 h, 1DP (1 day protectant)); > 85% in the assay with Phakopsora pachyrhizi (72 h, 3DC (3 day curative)); < 20% in the assay with Rhynchosporium commune.
With `CCN(C)/C=N/c1cc(C)c(C(=O)Cc2cccc(C(=O)OC)c2)cc1C` [Compound 24], the pest or weed control at 200 ppm is < 20% in the assay on Zymoseptoria tritici (24 h, 1DP (1 day protectant)); < 20% with Zymoseptoria tritici (72 h, 3DC (3 day curative)); > 85% in the assay on Puccinia triticina; < 20% with Phakopsora pachyrhizi (24 h, 1DP (1 day protectant)); < 20% in the assay on Phakopsora pachyrhizi (72 h, 3DC (3 day curative)); < 20% with Rhynchosporium commune.
Take `CCN(C)/C=N/c1cc(C)c(C(=O)Cc2cccc(OC(F)F)c2)cc1C` [Compound 84]: the pest or weed control at 200 ppm was < 20% in the assay with Zymoseptoria tritici (24 h, 1DP (1 day protectant)); < 20% in the assay with Zymoseptoria tritici (72 h, 3DC (3 day curative)); > 85% in the assay with Puccinia triticina; > 85% in the assay on Phakopsora pachyrhizi (24 h, 1DP (1 day protectant)); > 85% with Phakopsora pachyrhizi (72 h, 3DC (3 day curative)); > 85% in the assay on Rhynchosporium commune.
Turning to `CCN(C)/C=N/c1cc(C)c(C(=O)Cc2ccc(C(F)(F)F)cc2)cc1C` [Compound 63], the pest or weed control at 200 ppm is > 85% in the assay with Zymoseptoria tritici (24 h, 1DP (1 day protectant)); 20 to 50% in the assay on Zymoseptoria tritici (72 h, 3DC (3 day curative)); > 85% in the assay with Puccinia triticina; > 85% in the assay with Phakopsora pachyrhizi (24 h, 1DP (1 day protectant)); > 85% in the assay on Phakopsora pachyrhizi (72 h, 3DC (3 day curative)); > 85% with Rhynchosporium commune.
`CCc1ccc(CC(=O)c2cc(C)c(/N=C/N(C)CC)cc2C)cc1` [Compound 6]: the pest or weed control at 200 ppm is > 85% in the assay on Zymoseptoria tritici (24 h, 1DP (1 day protectant)); 20 to 50% in the assay with Zymoseptoria tritici (72 h, 3DC (3 day curative)); > 85% with Puccinia triticina; > 85% in the assay on Phakopsora pachyrhizi (24 h, 1DP (1 day protectant)); > 85% in the assay with Phakopsora pachyrhizi (72 h, 3DC (3 day curative)); > 85% with Rhynchosporium commune.
For `CCN(C)/C=N/c1ccc(C(=O)Cc2ccc(C)cc2)c(C)c1C` [Compound 12], the pest or weed control at 200 ppm in the assay on Zymoseptoria tritici (24 h, 1DP (1 day protectant)) was < 20%; in the assay on Zymoseptoria tritici (72 h, 3DC (3 day curative)) it was < 20%; in the assay with Puccinia triticina it was < 20%; with Phakopsora pachyrhizi (24 h, 1DP (1 day protectant)), 50 to 85%; in the assay with Phakopsora pachyrhizi (72 h, 3DC (3 day curative)) it was 50 to 85%; with Rhynchosporium commune it was < 20%.
With `CCN(C)/C=N/c1ccc(C(=O)Cc2ccc(C)cc2F)c(C)c1C` [Compound 11], the pest or weed control at 200 ppm is < 20% in the assay on Zymoseptoria tritici (24 h, 1DP (1 day protectant)); < 20% with Zymoseptoria tritici (72 h, 3DC (3 day curative)); < 20% in the assay on Puccinia triticina; > 85% with Phakopsora pachyrhizi (24 h, 1DP (1 day protectant)); > 85% in the assay on Phakopsora pachyrhizi (72 h, 3DC (3 day curative)); < 20% in the assay with Rhynchosporium commune.
In the case of `CCN(/C=N/c1cc(C)c(C(=O)CC2CCCCC2)cc1C)CC` [Compound 58], the pest or weed control at 200 ppm was 50 to 85% in the assay on Zymoseptoria tritici (24 h, 1DP (1 day protectant)); < 20% with Zymoseptoria tritici (72 h, 3DC (3 day curative)); > 85% in the assay with Puccinia triticina; > 85% in the assay with Phakopsora pachyrhizi (24 h, 1DP (1 day protectant)); > 85% in the assay on Phakopsora pachyrhizi (72 h, 3DC (3 day curative)); < 20% with Rhynchosporium commune.
With `CCN(C)/C=N/c1cc(C)c(C(=O)Cc2cccc(C(F)(F)F)c2F)cc1C` [Compound 36], the pest or weed control at 200 ppm with Zymoseptoria tritici (72 h, 3DC (3 day curative)) was < 20%; in the assay on Puccinia triticina, > 85%; in the assay on Phakopsora pachyrhizi (24 h, 1DP (1 day protectant)), > 85%; with Phakopsora pachyrhizi (72 h, 3DC (3 day curative)), > 85%; in the assay with Rhynchosporium commune it was 50 to 85%.
Turning to `CC/C(=N\c1cc(C)c(C(=O)Cc2c(F)cc(F)cc2F)cc1C)N(C)CC` [Compound 87], the pest or weed control at 200 ppm in the assay on Zymoseptoria tritici (24 h, 1DP (1 day protectant)) is < 20%; in the assay with Zymoseptoria tritici (72 h, 3DC (3 day curative)) it was < 20%; with Puccinia triticina it was > 85%; in the assay with Phakopsora pachyrhizi (24 h, 1DP (1 day protectant)), 50 to 85%; with Phakopsora pachyrhizi (72 h, 3DC (3 day curative)), 20 to 50%; with Rhynchosporium commune it was < 20%.
Turning to `CCN(C)/C=N/c1cc(C)c(C(=O)Cc2ccccc2OC(F)F)cc1C` [Compound 83], the pest or weed control at 200 ppm in the assay on Zymoseptoria tritici (24 h, 1DP (1 day protectant)) was < 20%; in the assay with Zymoseptoria tritici (72 h, 3DC (3 day curative)) it was < 20%; in the assay with Puccinia triticina, > 85%; in the assay on Phakopsora pachyrhizi (24 h, 1DP (1 day protectant)) it was > 85%; in the assay with Phakopsora pachyrhizi (72 h, 3DC (3 day curative)), > 85%; with Rhynchosporium commune it was > 85%.
`Cc1cc(C(=O)CC2CCCC2)c(C)cc1/N=C/N(C)C(C)C` [Compound 82]: the pest or weed control at 200 ppm in the assay on Zymoseptoria tritici (24 h, 1DP (1 day protectant)) is > 85%; with Zymoseptoria tritici (72 h, 3DC (3 day curative)) it was < 20%; in the assay on Puccinia triticina it was > 85%; in the assay with Phakopsora pachyrhizi (24 h, 1DP (1 day protectant)), > 85%; with Phakopsora pachyrhizi (72 h, 3DC (3 day curative)) it was > 85%; in the assay with Rhynchosporium commune it was > 85%.
Take `CCN(C)/C=N/c1cc(C)c(C(=O)CC2CCCC2)cc1OC` [Compound 74]: the pest or weed control at 200 ppm with Zymoseptoria tritici (24 h, 1DP (1 day protectant)) is < 20%; with Zymoseptoria tritici (72 h, 3DC (3 day curative)), < 20%; in the assay on Puccinia triticina, > 85%; in the assay with Phakopsora pachyrhizi (24 h, 1DP (1 day protectant)), > 85%; in the assay on Phakopsora pachyrhizi (72 h, 3DC (3 day curative)) it was > 85%; in the assay on Rhynchosporium commune, 50 to 85%.
With `CCN(C)/C(S)=N/c1cc(C)c(C(=O)CC2CCCC2)cc1C` [Compound 94], the pest or weed control at 200 ppm in the assay with Zymoseptoria tritici (24 h, 1DP (1 day protectant)) was > 85%; with Zymoseptoria tritici (72 h, 3DC (3 day curative)), < 20%; with Puccinia triticina it was > 85%; with Phakopsora pachyrhizi (24 h, 1DP (1 day protectant)) it was > 85%; in the assay on Phakopsora pachyrhizi (72 h, 3DC (3 day curative)), > 85%; in the assay on Rhynchosporium commune, > 85%.
For `CCN(C)/C=N/c1cc(C)c(C(=O)Cc2cccc(C(=O)OC)c2F)cc1C` [Compound 31], the pest or weed control at 200 ppm in the assay on Zymoseptoria tritici (24 h, 1DP (1 day protectant)) was > 85%; with Zymoseptoria tritici (72 h, 3DC (3 day curative)), < 20%; in the assay on Puccinia triticina, > 85%; with Phakopsora pachyrhizi (24 h, 1DP (1 day protectant)), < 20%; in the assay with Phakopsora pachyrhizi (72 h, 3DC (3 day curative)), < 20%; with Rhynchosporium commune, 50 to 85%.
For the molecule `Cc1cc(C(=O)CC2CCCCC2)c(C)cc1/N=C(\S)N(C)c1ccccc1` [Compound 51], the pest or weed control at 200 ppm in the assay on Zymoseptoria tritici (24 h, 1DP (1 day protectant)) is 20 to 50%; in the assay on Zymoseptoria tritici (72 h, 3DC (3 day curative)), < 20%; with Puccinia triticina, < 20%; in the assay with Phakopsora pachyrhizi (24 h, 1DP (1 day protectant)), < 20%; with Phakopsora pachyrhizi (72 h, 3DC (3 day curative)), < 20%; with Rhynchosporium commune it was < 20%.
For the molecule `CCN(C)/C=N/c1cc(C)c(C(=O)Cc2c(F)cc(F)cc2F)cc1C` [Compound 23], the pest or weed control at 200 ppm is 20 to 50% in the assay on Zymoseptoria tritici (24 h, 1DP (1 day protectant)); < 20% with Zymoseptoria tritici (72 h, 3DC (3 day curative)); > 85% in the assay with Puccinia triticina; > 85% in the assay with Phakopsora pachyrhizi (24 h, 1DP (1 day protectant)); > 85% in the assay with Phakopsora pachyrhizi (72 h, 3DC (3 day curative)); > 85% in the assay on Rhynchosporium commune.
